Measurements as given in ChEMBL document CHEMBL1201862, “PubChem BioAssay data set” (2004).
The source made the active and inactive calls. Cut-off read from the data, not from the text of the source, for most assays here: actives have a measured EC50 and inactives only a lower limit.

Experiments:
[1] = Luminescence Cell-Based Dose Retest to Confirm Inhibitors of Cancer Stem Cells. [Related pubchem assays (depositor defined):AID2717, AID2721]; assay type: functional; settings: Homo sapiens
Cytochrome P450 3A4 = Cytochrome P450 3A4 (Homo sapiens, UniProt P08684);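 note: CYP3A4 tested as one member of a cytochrome P450 panel screen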
Chain of Cytochrome P450 3A4 (P08684 whole entry): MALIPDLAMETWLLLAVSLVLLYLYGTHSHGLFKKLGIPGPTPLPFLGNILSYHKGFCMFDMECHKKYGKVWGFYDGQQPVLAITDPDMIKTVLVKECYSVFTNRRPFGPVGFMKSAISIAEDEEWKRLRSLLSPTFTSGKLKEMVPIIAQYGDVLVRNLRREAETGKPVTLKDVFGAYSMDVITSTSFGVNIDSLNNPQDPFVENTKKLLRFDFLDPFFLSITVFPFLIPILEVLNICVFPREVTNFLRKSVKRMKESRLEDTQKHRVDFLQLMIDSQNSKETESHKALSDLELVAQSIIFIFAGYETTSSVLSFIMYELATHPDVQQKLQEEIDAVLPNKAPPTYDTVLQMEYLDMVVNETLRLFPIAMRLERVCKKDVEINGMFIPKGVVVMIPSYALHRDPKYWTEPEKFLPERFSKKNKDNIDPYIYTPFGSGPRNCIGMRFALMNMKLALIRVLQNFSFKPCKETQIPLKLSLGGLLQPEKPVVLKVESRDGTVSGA

Cytochrome P450 2C9 = Cytochrome P450 2C9 (Homo sapiens, UniProt P11712)
Chain of Cytochrome P450 2C9 (P11712 whole entry): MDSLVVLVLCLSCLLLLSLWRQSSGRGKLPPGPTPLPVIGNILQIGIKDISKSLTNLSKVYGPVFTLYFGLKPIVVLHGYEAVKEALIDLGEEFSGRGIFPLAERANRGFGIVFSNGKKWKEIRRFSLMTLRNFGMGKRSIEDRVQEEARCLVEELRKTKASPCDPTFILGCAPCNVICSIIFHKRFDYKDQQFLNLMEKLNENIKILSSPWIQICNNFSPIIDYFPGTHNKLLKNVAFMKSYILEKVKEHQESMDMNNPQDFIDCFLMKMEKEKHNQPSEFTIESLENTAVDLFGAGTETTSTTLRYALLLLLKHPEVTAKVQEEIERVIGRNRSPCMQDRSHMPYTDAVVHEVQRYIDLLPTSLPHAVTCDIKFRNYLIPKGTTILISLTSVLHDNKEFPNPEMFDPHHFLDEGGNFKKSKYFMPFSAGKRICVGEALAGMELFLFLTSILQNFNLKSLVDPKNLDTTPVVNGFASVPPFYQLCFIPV

[2] = NIH-3T3 fibroblast cytotoxicity, dose response, cytotoxicity control, cell-based, fluorescence, Alamar Blue, secondary assay (AID 2327); assay type: functional;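 note: NIH-3T3 mouse fibroblasts cultured with fluconazole at 8 µg/mL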
[3] = C. albicans growth with fluconazole, confirmation, fluorescence, retest (AID 2467); assay type: functional, cell-based
Streptococcus = test: Group A Streptococcus viability loss, dose response, counter-screen for streptokinase expression inhibitor project, luminescence, BacTiterGlo (AID 1915); assay type: functional, organism-based;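 note: potency for reduction of bacterial viability or growth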
Streptokinase A = target: T1, Streptokinase A (Streptococcus pyogenes serotype M1, UniProt P10520); test: S. pyogenes streptokinase expression inhibitors, potency, dose response, plasminogen activation absorbance, OD405 (AID 1914); assay type: functional, Streptococcus pyogenes M1 GAS;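 note: secreted streptokinase activity via plasminogen activation per viability signal from cell pellet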
T1 sequence (P10520 whole entry): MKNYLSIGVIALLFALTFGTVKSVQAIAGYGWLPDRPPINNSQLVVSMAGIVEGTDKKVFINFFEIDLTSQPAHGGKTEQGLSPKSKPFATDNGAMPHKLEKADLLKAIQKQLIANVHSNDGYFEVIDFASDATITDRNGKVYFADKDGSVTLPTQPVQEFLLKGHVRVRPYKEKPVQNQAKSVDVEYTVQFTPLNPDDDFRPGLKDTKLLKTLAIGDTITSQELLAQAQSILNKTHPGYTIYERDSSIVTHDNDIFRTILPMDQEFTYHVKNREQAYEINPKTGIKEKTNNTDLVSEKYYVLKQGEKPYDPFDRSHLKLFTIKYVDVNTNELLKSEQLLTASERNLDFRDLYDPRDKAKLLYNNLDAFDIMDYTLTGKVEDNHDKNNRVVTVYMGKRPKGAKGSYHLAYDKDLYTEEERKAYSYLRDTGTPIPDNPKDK

[4] = test system: Streptococcus sp. 'group A'; test: growth inhibition of control SK(-) GAS strain, dose response, counter-screen for streptokinase expression inhibitor project, luminescence, kanamycin, BacTiterGlo, confirmation (AID 1900); assay type: functional, organism-based
[5] = target: T2, Short transient receptor potential channel 4 (Mus musculus, UniProt Q9QUQ5); test: mouse TRPC4 channel inhibitors, dose response, cell-based, HEK293 TRPC4/mu-opioid, Fluo-4 calcium (AID 434942); assay type: functional;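 note: potency of inhibitors blocking the TRPC4 calcium response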
T2 sequence (Q9QUQ5 whole entry): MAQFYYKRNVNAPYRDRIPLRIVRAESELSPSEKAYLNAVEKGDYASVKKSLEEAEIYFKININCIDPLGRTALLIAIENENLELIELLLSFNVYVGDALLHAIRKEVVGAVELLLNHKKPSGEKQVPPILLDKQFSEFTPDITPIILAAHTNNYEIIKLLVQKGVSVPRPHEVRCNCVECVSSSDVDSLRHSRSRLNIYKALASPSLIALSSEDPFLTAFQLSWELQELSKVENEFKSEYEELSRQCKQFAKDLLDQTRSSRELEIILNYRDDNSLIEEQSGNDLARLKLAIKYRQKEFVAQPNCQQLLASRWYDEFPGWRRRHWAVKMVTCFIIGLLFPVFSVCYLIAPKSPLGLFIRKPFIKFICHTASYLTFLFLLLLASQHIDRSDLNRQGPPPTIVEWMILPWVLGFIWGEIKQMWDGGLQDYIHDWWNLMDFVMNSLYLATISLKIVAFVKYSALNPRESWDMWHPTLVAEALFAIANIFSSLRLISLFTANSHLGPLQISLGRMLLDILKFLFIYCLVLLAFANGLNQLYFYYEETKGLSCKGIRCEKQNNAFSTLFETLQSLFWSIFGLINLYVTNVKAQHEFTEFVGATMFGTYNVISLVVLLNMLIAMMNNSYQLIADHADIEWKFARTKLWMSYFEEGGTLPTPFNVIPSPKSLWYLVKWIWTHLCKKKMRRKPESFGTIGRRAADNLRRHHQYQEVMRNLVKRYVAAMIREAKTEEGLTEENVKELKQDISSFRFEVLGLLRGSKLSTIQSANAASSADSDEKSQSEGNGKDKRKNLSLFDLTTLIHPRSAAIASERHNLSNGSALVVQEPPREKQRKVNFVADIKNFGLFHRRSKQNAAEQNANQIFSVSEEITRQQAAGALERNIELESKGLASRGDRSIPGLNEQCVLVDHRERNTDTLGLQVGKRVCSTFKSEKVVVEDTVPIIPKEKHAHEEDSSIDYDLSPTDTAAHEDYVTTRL

[6] = cytotoxicity toward NIH3T3 fibroblasts, dose response, counter-screen, cell-based, ATP luminescence, mouse fibroblasts (AID 2010); assay type: functional;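 note: cells exposed to compound for about 90 hours before reading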
[7] = inhibitors of intracellular T. cruzi replication, confirmation, NIH3T3 host cells, beta-gal luminescence (AID 2044); assay type: functional, cell-based;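 note: intracellular parasites grown in NIH/3T3 mouse fibroblasts as host cells; luminescent beta-galactosidase reporter signal from transgenic T. cruzi replicating inside host cells; inhibitors lower the luminescence signal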
H4 = test: Luminescence Cell-Based Dose Response HTS to Identify Activators of 5'UTR Stem-Loop Driven Prion Protein mRNA Translation in H4 Neuroglioblastoma Cells. [Related pubchem assays: 1829 (Project Summary), 1814 (Primary HTS)]; assay type: functional; settings: Homo sapiens
[8] = Luminescence Cell-Based Dose Response HTS to Identify Activators of Luciferase Translation or Activity in H4 […] Cells. [Related pubchem assays: 1829 (Project Summary), 1814 (Primary HTS)]; assay type: functional
[9] = target: T3, Corticotropin-releasing factor receptor 2/Corticotropin-releasing factor-binding protein (Homo sapiens, UniProt P24387+Q13324); test: activators of CRF receptor 2 with binding protein – uHTS hits, confirmation (AID 602473); assay type: functional; settings: read-out: EC50_Mean
T3 sequence (Q13324 whole entry): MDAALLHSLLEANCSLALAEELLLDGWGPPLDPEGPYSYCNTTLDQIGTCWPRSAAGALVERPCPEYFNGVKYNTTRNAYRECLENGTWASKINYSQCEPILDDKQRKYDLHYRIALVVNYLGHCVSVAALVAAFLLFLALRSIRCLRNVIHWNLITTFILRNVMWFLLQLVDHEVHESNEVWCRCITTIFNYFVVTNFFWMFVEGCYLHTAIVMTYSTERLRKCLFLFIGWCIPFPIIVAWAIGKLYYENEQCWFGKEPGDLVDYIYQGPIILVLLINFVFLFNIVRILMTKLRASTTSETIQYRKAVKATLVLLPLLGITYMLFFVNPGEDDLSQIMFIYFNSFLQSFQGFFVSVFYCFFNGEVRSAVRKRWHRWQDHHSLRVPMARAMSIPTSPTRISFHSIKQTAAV
T3 sequence (P24387 whole entry): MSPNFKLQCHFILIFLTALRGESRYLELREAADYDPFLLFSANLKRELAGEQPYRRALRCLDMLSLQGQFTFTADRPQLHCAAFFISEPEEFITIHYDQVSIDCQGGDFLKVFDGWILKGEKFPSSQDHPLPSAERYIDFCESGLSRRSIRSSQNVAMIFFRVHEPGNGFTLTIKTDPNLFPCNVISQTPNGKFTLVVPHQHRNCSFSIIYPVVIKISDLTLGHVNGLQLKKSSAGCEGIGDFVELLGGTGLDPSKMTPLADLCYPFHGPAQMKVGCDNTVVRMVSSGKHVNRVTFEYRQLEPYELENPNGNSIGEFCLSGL

Question: With O=C(CC1Nc2ccccc2NC1=O)Nc1ccccc1 (stereo unspecified) as the molecule, how does the AC50 [1] read?
Answer: 0.568 µM (active)

Question: Which results are given for CCNc1ncc2nc(-c3cccs3)c(=O)n(C)c2n1?
Answer: AC50 (Cytochrome P450 3A4): 12.6 µM (inconclusive); AC50 (Cytochrome P450 2C9): 10 µM (inconclusive)

Question: Which EC50 [2] does the source give for COC(=O)c1ccc(NS(=O)(=O)c2cc(-c3cc(C)no3)ccc2OC)cc1 here?
Answer: 127 µM (active)

Question: And the EC50 [3]?
Answer: > 38 µM (not active)

Question: Which AC50 (Cytochrome P450 3A4) does the source give for C/C(CC(=O)NCc1ccco1)=N\NC(=O)Cc1ccccc1 here?
Answer: 17.8 µM (inconclusive)

Question: For C[C@@H]1OC2C3=C(C(=O)[C@H]4O[C@@H]4[C@H]3O)[C@@H]1[C@H]1[C@H](C)OC=C3[C@H](O)[C@H]4O[C@H]4/C(=N\OCc4ccccc4)[C@@]321, which AC50 (Cytochrome P450 3A4) is on record?
Answer: 3.98 µM (inconclusive)

Question: What does the source list for CCc1c(C)c(C#N)c2nc3ccccc3n2c1S?
Answer: EC50 (Streptococcus): 21.5 µM (active); EC50 (Streptokinase A): > 150 µM (not active); EC50 [4]: 14.6 µM (active)

Question: Which EC50 [5] does the source give for Cn1cc(CN2CCCCC2CO)c(-c2ccc(Oc3ccccc3)cc2)n1 (stereo unspecified) here?
Answer: 7.5 µM (active)

Question: Which AC50 [1] does the source give for CCC/C(=C1/c2ccccc2C(=O)N1c1ccccc1)c1ccc2[nH]ccc2c1 here?
Answer: 1.04 µM (active)

Question: Which EC50 [6] does the source give for CCCc1nc2ccccc2c(C(=O)OCC(=O)N2CCc3ccccc32)c1CC here?
Answer: > 60 µM (not active)

Question: And the EC50 [7]?
Answer: 0.496 µM (active)

Question: And the AC50 [1]?
Answer: 3.04 µM (active)

Question: Which EC50 (H4) does the source give for COc1cc2c(cc1NC(=O)c1ccccc1F)CCCC2 here?
Answer: > 120 µM (not active)

Question: What about the EC50 [8] of the same molecule?
Answer: 89.6 µM (active)

Question: With Oc1c2cnnc-2nc(SCc2c(F)cccc2F)n1-c1ccc(Cl)cc1 as the molecule, how does the EC50 (Streptococcus) read?
Answer: > 150 µM (not active)

Question: What about the EC50 (Streptokinase A) of the same molecule?
Answer: > 150 µM (not active)

Question: And the EC50 [4]?
Answer: 14.1 µM (active)

Question: For CCOC(=O)c1[nH]c2cc(OC)c(OC)cc2c1NC(=O)c1nonc1C, which AC50 (Cytochrome P450 3A4) is on record?
Answer: 2.82 µM (inconclusive)

Question: With Fc1ccccc1COc1ccc(-c2nnn(Cc3ccccc3F)n2)cc1 as the molecule, how does the AC50 [1] read?
Answer: 5.63 µM (active)

Question: With COCCn1c(SCC(=O)Nc2ccc(F)cc2)nc2c3ccccc3nc-2c1O as the molecule, how does the EC50 (Streptococcus) read?
Answer: > 150 µM (not active)

Question: And the EC50 (Streptokinase A)?
Answer: > 150 µM (not active)

Question: And the EC50 [4]?
Answer: > 150 µM (not active)

Question: Which EC50 [5] does the source give for CN1CCCCc2c1nc1ccccc1c2N.O=C(O)c1cncc(Br)c1 here?
Answer: 0.668 µM (active)

Question: With Cc1ccc(Cn2ccc(NC(=O)c3cc(C)on3)n2)cc1 as the molecule, how does the EC50 [2] read?
Answer: > 150 µM (inactive)

Question: And the EC50 [3]?
Answer: > 38 µM (not active)

Question: For COc1cc(OC)cc(-c2cc3nc4c(c(N5CCN(c6ncccn6)CC5)n3n2)CCCC4)c1, which EC50 (Streptococcus) is on record?
Answer: 106 µM (active)

Question: What about the EC50 (Streptokinase A) of the same molecule?
Answer: > 150 µM (not active)

Question: And the EC50 [4]?
Answer: 13.2 µM (active)

Question: For Cc1cccc(Nc2nnc(-c3ccc(N4CCOCC4)c([N+](=O)[O-])c3)c3ccccc23)c1, which EC50 (Streptococcus) is on record?
Answer: 125 µM (active)

Question: And the EC50 (Streptokinase A)?
Answer: > 150 µM (not active)

Question: What about the EC50 [4] of the same molecule?
Answer: 3.77 µM (active)

Question: With Cc1c(O)cc2c(c1O)C(=O)CC(c1ccccc1)O2 (stereo unspecified) [STROBOPININ] as the molecule, how does the EC50 [9] read?
Answer: 2.69 µM (active)

Question: What about the AC50 [1] of the same molecule?
Answer: 4.97 µM (active)
